# Where two headings read alike, the source gives them in different places.
# B1: VEGFD-HA: HA-tagged VEGFD expressed from rAAV plasmid or rAAV (protein, UniProt P97946 94-210, looked up)
# Vascular endothelial growth …: FAATFYDTETLKVIDEEWQRTQCSPRETCVEVASELGKTTNTFFKPPCVNVFRCGGCCNEEGVMCMNTSTSYISKQLFEISVPLTSVPELVPVKIANHTGCKCLPTGPRHPYSIIRR
# modifications: HA tag
# B2: resiVEGFD-HA: HA-tagged VEGFD resistant to shVEGFD, expressed from plasmid (protein, UniProt P97946 94-210, looked up)
# Vascular endothelial growth …: B1 Vascular endothelial growth …
# modifications: HA tag; shRNA-resistant coding sequence
# notes: HA-tagged VEGFD resistant to shVEGFD, expressed from plasmid
# B3: rVEGFC: recombinant mouse VEGFC (Biocat) (protein, UniProt P97953 108-223, looked up)
# Vascular endothelial growth …: AHYNTEILKSIDNEWRKTQCMPREVCIDVGKEFGAATNTFFKPPCVSVYRCGGCCNSEGLQCMNTSTGYLSKTLFEITVPLSQGPKPVTISFANHTSCRCMSKLDVYRQVHSIIRR
# What was measured:
# Format in all cases: cell-based, mice
# VEGFD = test: qRT-PCR analysis of VEGFD expression in hippocampal neurons
# Description: Total RNA was isolated at DIV10 to DIV13 from hippocampal primary neuron cultures or isolated brain tissues with Rneasy Mini Kit (Qiagen, Hilden, Germany) including an optional Dnase I treatment at room temperature for 15 min according to manufacturer's instructions (Qiagen). 1.2 μg of extracted RNA was reverse transcribed into first strand cDNA using High Capacity cDNA Reverse Transcription kit (Applied Biosystems, Foster City, Calif.).
# Quantitative reverse transcriptase PCR (qRT-PCR) was done on an ABI7300 thermal cycler using Universal qRT-PCR master mix with TaqMan Gene Expression Assays for the indicated genes (Applied Biosystems). The following TaqMan Gene Expression Assays were used in this study: Gusb (Mm00446953_m1), cFos (Mm00487425_m1), VEGFD (Mm00438965_m1), VEGFC (Mm01202432_m1), VEGF (Mm01281449_m1), VEGFR3 (Mm01292618_m1), beta-actin (Mm00607939_s1), beta-2 microglobulin (Mm00437762_m1), CBP (Mm01342435_m1), p38 MAPK alpha (Mm00442497_m1), p38 MAPK beta (Mm00440955_m1). Expression of target genes was normalized against the expression of Gusb as endogenous control gene. Data were derived from at least 5 independent experiments.
# hippocampal neurons = test: Morphometric analyses (total dendritic length, Sholl analysis, spine density) of cultured hippocampal neurons; details: for total dendritic length and dendritic complexity (Sholl analysis): neurons expressing the construct versus control constructs; for rescue of reduction in dendrite length and complexity caused by CaMBP4 or CaMKIVK75E: recombinant factors 100 ng/ml for 3 days, or VEGFD-HA expression
# Description: Hippocampal neurons from newborn C57BL/6 mice were cultured as known in the art. Experiments were done after a culturing period of 10 to 14 days in vitro (DIV). DNA transfection was done on DIV8 using Lipofectamine 2000 (Invitrogen, San Diego, Calif.). For the studies on dendrite morphology, neurons were analyzed 4-5 days after transfection.
# For 3D Sholl Analysis, total dendritic length and spine morphology were calculated using Object-Image freeware software with a specific set of macros (written by Dr. E. Ruthazer, McGill University, Quebec). Briefly, a z-Stack acquisition was imported, calibrated in Object-Image and manually traced. Total dendritic length was then computed. For Sholl analysis, the shell interval was set at 5 μm. All analyses were performed blind. In all in vitro experiments, for each condition, a minimum of 12 neurons from three independent preparations was analyzed. For the Golgi staining quantifications of 20 neurons for each condition from 4 different injected animals per viral construct were traced and analyzed.
# Hippocampal neurons were fixed with 4% paraformaldehyde at room temperature for 20 min. For immunostaining, primary and secondary antibodies were applied in GDB buffer (30 mM phosphate buffer [pH7.4] containing 0.2% gelatin, 0.5% Triton X-100, and 0.9 M NaCl). For the morphometric analyses, fluorescence images were acquired using a confocal laser-scanning microscope TCS SP2 (Leica, Mannheim, Germany) equipped with an inverted fluorescence microscope DM IRE2 (Leica) and Leica confocal scan software. All images were obtained with sequential acquisition setting at a resolution of 1024×1024 pixels. Each image was a z series projection of images taken at 1 μm intervals.
# [1] = system: cultured hippocampal neurons; test: Whole-cell patch clamp recordings of cultured hippocampal neurons
# From the text: Whole-cell patch clamp recordings were made at room temperature from cultured hippocampal neurons plated on coverslips secured with a platinum ring in a recording chamber (Open access chamber-1, Science Products GmbH, Hofheim, Germany) mounted on a fixed-stage upright microscope (BX51WI, Olympus, Hamburg, Germany). Differential interference contrast optics, infrared illumination and a CCD camera (PCO, Visitron Systems, Puchheim, Germany) connected to a contrast enhancement unit (Argus, Hamamatsu, Herrsching am Ammersee, Germany) were used to view neurons on a video monitor. Recordings were made with a Multiclamp 700A amplifier, digitized through a Digidata 1322A A/D converter and acquired using pClamp software (Molecular Devices, CA, USA). All membrane potentials have been corrected for the calculated junction potential of −11 mV (JPCalc program by Dr. Peter H. Barry). mEPSCs and whole-cell AMPA (10 μM, 6 ml/min, Biotrend) responses were recorded as known in the art except for the solutions and that a holding potential of −71 mV was used and both TTX (1 μM, Biotrend, Cologne, Germany) and gabazine (5 μM, Biotrend) were included in the ACSF. TTX was applied before gabazine to prevent the induction of action potential bursting. Access (range: 7-18 MU) and membrane resistance (see Table 1) were monitored before and after mEPSC recordings and data was rejected if changes greater than 20% occurred.
# Patch electrodes (3-4 MU) were made from borosilicate glass (1.5 mm, WPI, Sarasota, Fla., USA) and filled with intracellular solution (containing in mM: KCH3SO4, 145; NaCl, 8; HEPES, 10; K2-phosphocreatine, 10; Mgt-ATP, 4; Na3-GTP, 0.3; pH 7.35 with KOH). The extracellular solution was an artificial cerebrospinal fluid (ACSF, in mM: NaCl, 125; KCl, 3.5; MgCl2, 1.3; NaH2PO4, 1.2; CaCl2, 2.4; glucose, 25; NaHCO3, 26; gassed with 95% O2 and 5% CO2).
# [2] = system: VEGFD, VEGF, VEGFC and VEGFR3; test: qRT-PCR analysis of shRNA knock-down of VEGF family members; details: hippocampal neurons infected with rAAV
# Description: Total RNA was isolated at DIV10 to DIV13 from hippocampal primary neuron cultures or isolated brain tissues with Rneasy Mini Kit (Qiagen, Hilden, Germany) including an optional Dnase I treatment at room temperature for 15 min according to manufacturer's instructions (Qiagen). 1.2 μg of extracted RNA was reverse transcribed into first strand cDNA using High Capacity cDNA Reverse Transcription kit (Applied Biosystems, Foster City, Calif.). Quantitative reverse transcriptase PCR (qRT-PCR) was done on an ABI7300 thermal cycler using Universal qRT-PCR master mix with TaqMan Gene Expression Assays for the indicated genes (Applied Biosystems). The following TaqMan Gene Expression Assays were used in this study: Gusb (Mm00446953_m1), cFos (Mm00487425_m1), VEGFD (Mm00438965_m1), VEGFC (Mm01202432_m1), VEGF (Mm01281449_m1), VEGFR3 (Mm01292618_m1), beta-actin (Mm00607939_s1), beta-2 microglobulin (Mm00437762_m1), CBP (Mm01342435_m1), p38 MAPK alpha (Mm00442497_m1), p38 MAPK beta (Mm00440955_m1). Expression of target genes was normalized against the expression of Gusb as endogenous control gene. Data were derived from at least 5 independent experiments. For expression of shRNAs, an rAAV vector containing the U6 promoter for shRNA expression and a CaMKII promoter driving mCherry expression was used. Three different sequences were obtained from Open Biosystems ([…] 2 and […] 3), cloned and tested for silencing efficiency. […] As control, a scramble version of this sequence ([…] ID NO: 2) and the vector carrying only the mCherry ([…]) were used. Shp38alpha [NT] ID NO: 3), shp38beta [NT] ID NO: 4), […] ID NO: 5), […] ID NO: 6) and […] ID NO: 7; sequence obtained from Open Biosystems www.openbiosystems.com) were also cloned into the same vector. CBP expression level was knocked down using a pool of four short interfering RNAs (siRNAs) targeting mouse CBP (Accell siRNA SMARTpool; Thermo Scientific Dharmacon). The SMARTpool is a group of four siRNAs that have been screened to reduce a variety of potential off-target effects including the inclusion of miRNA (microRNA)-like seed motifs. Silencing of GAPDH was measured using Accell mouse GAPDH as a positive control, and as a negative control, a non-targeting Accell mouse siRNA pool was used. In addition, a fluorescently labeled non-targeting Accell mouse siRNA was also used to evaluate penetration efficiency in hippocampal neurons via immunocytochemistry. Briefly, 500 nM siRNAs were supplemented in the serum-free culturing medium at DIV8, and mRNA levels were analyzed at DIV13.
molecule,measurement,setting,value
"C[C@]12N[C@H](Cc3ccccc31)c1ccccc12 [MK801, reference compound]",VEGFD expression (qRT-PCR),VEGFD,significantly reduced the expression of VEGFD mRNA
"C[S+]([O-])c1ccc(-c2nc(-c3ccncc3)c(-c3ccc(F)cc3)[nH]2)cc1 (stereo not drawn) [SB203580, reference compound]","Sholl analysis, SB203580 alone",hippocampal neurons,showed no difference compared to the respective untreated controls
same,effect on rVEGFD-induced rescue of dendrite length and complexity,hippocampal neurons,severely compromised the ability of rVEGFD to rescue the impairment of dendrite length and complexity
"shSCR: scramble version of the shVEGFD sequence (GTGCCAAGACGGGTAGTCA; SEQ ID NO: 2), control [reference compound]",AP induc thresh (current injection required to induce an action potential),[1]; infected neurons,116 ± 10 pA
same,AP thresh (membrane potential at which action potentials initiate),[1]; infected neurons,−48.4 ± 1.0 mV
same,Cm (membrane capacitance),[1]; infected neurons,102.4 ± 4.4 pF
same,Rm (membrane resistance),[1]; infected neurons,275 ± 15 MΩ
same,Vrest (resting membrane potential),[1]; infected neurons,−78.7 ± 1.7 mV
same,mEPSC τ decay,[1]; infected neurons,5.70 ± 0.12 ms
same,mEPSC τ rise,[1]; infected neurons,3.36 ± 0.07 ms
same,AP induc thresh (current injection required to induce an action potential),[1]; transfected neurons,125 ± 13 pA
same,AP thresh (membrane potential at which action potentials initiate),[1]; transfected neurons,−44.1 ± 1.6 mV
same,Cm (membrane capacitance),[1]; transfected neurons,88.6 ± 5.5 pF
same,Rm (membrane resistance),[1]; transfected neurons,291 ± 32 MΩ
same,Vrest (resting membrane potential),[1]; transfected neurons,−76.5 ± 2.3 mV
same,mEPSC τ decay,[1]; transfected neurons,6.06 ± 0.07 ms
same,mEPSC τ rise,[1]; transfected neurons,3.18 ± 0.14 ms
same,spine density (number of spines/20 μm),hippocampal neurons; transfected hippocampal neurons,6.17±0.56 spines/20 μm
shVEGF: shRNA specific for VEGF (ACCTCACCAAAGCCAGCAC; SEQ ID NO: 5) [reference compound],mRNA levels of respective targets,[2],reduced mRNA levels of their respective targets
same,total dendritic length and dendritic complexity (Sholl analysis),hippocampal neurons,had no effect on dendrite length or complexity
shVEGFC: shRNA specific for VEGFC (GTTCATTCCATTATTAGAC; SEQ ID NO: 6) [reference compound],mRNA levels of respective targets,[2],reduced mRNA levels of their respective targets
same,total dendritic length and dendritic complexity (Sholl analysis),hippocampal neurons,had no effect on dendrite length or complexity
shVEGFR3: shRNA specific for VEGFR3 (CCCAGTATTGTGTGGTACAAA; SEQ ID NO: 7),mRNA levels of respective targets,[2],reduced mRNA levels of their respective targets
same,total dendritic length and dendritic complexity (Sholl analysis),hippocampal neurons,changes in the dendritic structure that were virtually identical to those obtained in hippocampal neurons transfected with pAAV-shVEGFD
shp38α: shRNA specific for the alpha isoform of p38 MAPK (AAACACGAAAATGTGATTGGT; SEQ ID NO: 3) [reference compound],effect on rVEGFD-induced rescue of dendrite length and complexity,"hippocampal neurons; neurons expressing CaMBP4 (and CaMKIVK75E), rVEGFD 3 days",prevented the rVEGFD-induced rescue
B1,neuronal morphology,hippocampal neurons; neurons without nuclear calcium signaling blockade,no detectable effect on neuronal morphology
same,restoration of spine density in CaMBP4 or CaMKIVK75E expressing neurons,hippocampal neurons; rVEGFD 100 ng/ml 3 days or VEGFD-HA expression,failed to restore normal spine density
same,rescue of reduction in dendrite length and complexity caused by CaMBP4 or CaMKIVK75E,hippocampal neurons,rescued the reduction in dendrite length and complexity
B2,effect on reduction of dendrite length and complexity caused by shVEGFD,"hippocampal neurons; pAAV-shVEGFD transfected neurons, rVEGFD 100 ng/ml 3 days or co-transfection",rescued the reduction of dendrite length and complexity
B3,rescue of reduction in dendrite length and complexity caused by CaMBP4 or CaMKIVK75E,hippocampal neurons,neither recombinant VEGF (rVEGF) nor recombinant VEGFC (rVEGFC) was able to rescue
